Where two headings read alike, the source gives them in different places.
Tests used:
[1] = target: CDK6/D3 (Homo sapiens (Human), UniProt Q00534); experiment: CDKs inhibition assay (ADP-Glo Kinase Assay), CDK6
Description: (2) Preparation of Test Compound:
(§1) a. Test compounds at a certain concentration were taken respectively, and diluted with kinase reaction buffer I to compound solutions with a final concentration of 50 μM;
(§2) 4. Preparation of reaction substrate and ATP mixed solution:
a. Preparation of ATP solution:
(§3) 200 μl of 0.1 mM ATP solution: 2 μl of 10 mM ATP was added into 198 μl kinase reaction buffer I;
(§4) 300 μl of 50 μl M ATP solution: 150 μl kinase reaction buffer I was added into 150 μl of above-mentioned 0.1 mM ATP solution;
(§5) b. Preparation of 300 μl reaction substrate solution:
(§6) 150 μl of 1 μg/μl reaction substrate stock solution was added into 150 μl kinase reaction buffer I and uniformly mixed;
(§7) c. Above-mentioned a/b solutions were mixed to obtain mixed solutions respectively.
(§8) 2 μl compound solution at each concentration was added into a 384-well plate respectively, and centrifuged for 3 min;
(§9) 4 μl kinase solution was added into each well, centrifuged at 5000 rpm for 10 min at 18° C., and shaked well for 10 min on a shaker;
(§10) 4 μl substrate and ATP mixed solution were added into each well, centrifuged at 5000 rpm for 10 min at 18° C., and shaked well for 90 min on a shaker at 37° C.;
(§11) The 384 well plate was removed and allow to achieve room temperature;
(§12) 10 μl ADP-Glo reagent was added into each well, centrifuged at 5000 rpm for 10 min at 18° C., and shaked well for 40 min on a shaker at 25° C. to terminate the reaction;
(§13) 20 μl kinase assay reagent was added into each well, centrifuged at 5000 rpm for 10 min at 18° C., and shaked well for 30 min on a shaker at 25° C.;
(§14) Fluorescence values were read by M1000pro microplate reader.
(§15) The inhibition rate of each compound at each concentration point was calculated according to the following equation, and IC50 value was calculated by curve fitting using GraphPad Prism 5 software.

[2] = target: CDK4/D3 (Homo sapiens (Human), UniProt P11802); experiment: CDKs inhibition assay (ADP-Glo Kinase Assay), CDK4
Description: (2) Preparation of Test Compound:
as §1, §2
a. Preparation of ATP solution:
as §3, §4, §5, §6, §7, §8, §9, §10, §11, §12, §13, §14, §15

[3] = test system: human breast cancer cell line MDB-MA-231; experiment: Proliferation inhibition assay on human breast cancer cell line MDA-MB-231 (DAPI staining, In Cell Analyzer); assay type: cell-based
Description: Experimental Preparation:
1. MDA-MB-231 cells were seeded at 4000 cells/100 ul/well to a 96-well plate with black transparent bottom, and cultured overnight at 37° C.;
3. Fixation: the cell plate was taken, medium was removed, and 50 μl of 4% paraformaldehyde was added to each well and fixed 10 min;
4.50 μl 0.1 M glycine was added to neutralize for 10 min;
6. Permeabilization: 50 ul of 0.2% TritonX-100 was added to each well and permeabilized at room temperature for 10 min;
8.5 mg/mL DAPI stock solution was diluted at 1:5000 (final concentration 1 μg/ml) and the cells were stained at room temperature for 20 min.
10. The plate was scanned and analyzed on In cell analyser.

[4] = MDA-MB-231, 72 h, read-out: IC50 for inhibition of proliferation of human breast cancer cell line MDB-MA-231
[5] = MDA-MB-231, read-out: IC50 for inhibition of proliferation of human breast cancer cell line MDB-MA-231, 72 h incubation

Sequence of CDK4/D3 (P11802 whole entry): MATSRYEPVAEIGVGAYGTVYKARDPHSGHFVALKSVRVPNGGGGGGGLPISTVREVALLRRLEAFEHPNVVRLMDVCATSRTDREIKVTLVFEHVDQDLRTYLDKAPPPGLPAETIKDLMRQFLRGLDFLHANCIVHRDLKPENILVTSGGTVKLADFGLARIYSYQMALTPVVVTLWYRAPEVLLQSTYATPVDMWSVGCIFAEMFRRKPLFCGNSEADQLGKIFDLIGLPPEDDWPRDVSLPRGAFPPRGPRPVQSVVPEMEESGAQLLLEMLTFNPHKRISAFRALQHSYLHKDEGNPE
Sequence of CDK4/D3 (P30281 whole entry partner): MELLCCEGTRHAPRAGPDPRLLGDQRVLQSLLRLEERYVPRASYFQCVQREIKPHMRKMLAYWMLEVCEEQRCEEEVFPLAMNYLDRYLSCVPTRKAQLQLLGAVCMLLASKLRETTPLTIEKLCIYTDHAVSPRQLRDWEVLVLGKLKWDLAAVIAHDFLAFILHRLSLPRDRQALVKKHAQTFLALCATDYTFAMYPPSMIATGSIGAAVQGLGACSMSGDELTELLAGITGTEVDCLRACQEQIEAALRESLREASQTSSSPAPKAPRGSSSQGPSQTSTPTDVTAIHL
Sequence of CDK6/D3 (Q00534 whole entry): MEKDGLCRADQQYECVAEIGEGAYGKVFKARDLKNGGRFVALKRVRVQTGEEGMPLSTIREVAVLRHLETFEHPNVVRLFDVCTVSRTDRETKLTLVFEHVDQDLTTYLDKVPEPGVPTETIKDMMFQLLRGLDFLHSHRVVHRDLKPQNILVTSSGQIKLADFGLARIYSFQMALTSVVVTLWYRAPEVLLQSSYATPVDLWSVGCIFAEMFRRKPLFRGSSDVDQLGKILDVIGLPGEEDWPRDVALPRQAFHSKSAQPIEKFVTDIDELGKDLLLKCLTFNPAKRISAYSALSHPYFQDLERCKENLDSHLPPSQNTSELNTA
Sequence of CDK6/D3 (P30281 whole entry partner): as the sequence (P30281 whole entry partner) above

| IC50 [1] [nM] | IC50 [2] [nM] | IC50 [3, 5] [nM] | Structure (SMILES) | IC50 [3, 4] [nM] |
| --- | --- | --- | --- | --- |
| 47.3 | 28 | 458 | CC1CCc2nc3c(F)cc(-c4nc(Nc5ccc6c(n5)CCN(C(=O)CO)C6)ncc4F)cc3n21 (stereo not shown) [Example 58, 1-(2-((5-Fluoro-4-(5-fluoro-1-methyl-2,3-dihydro-1H-benzo[d]pyrrolo[1,2-a]imidazol-7-yl)pyrimidin-2-yl)amino)-7,8-dihydro-1,6-naphthyridin-6(5H)-yl)-2-hydroxyethan-1-one] |  |
| 21.4 | 4.3 |  | CC1CCc2nc3c(F)cc(-c4nc(Nc5ccc(C6CCN(C)CC6)cn5)ncc4F)cc3n21 (stereo not shown) [Example 66] |  |
| 24.4 | 40 |  | CCN1CCC(c2ccc(Nc3ncc(F)c(-c4cc(F)c5nc6n(c5c4)C(C)CC6)n3)nc2)CC1 (stereo not shown) [Example 69, N-(5-(1-Ethylpiperidine-4-yl)pyridin-2-yl)-5-fluoro-4-(5-fluoro-1-methyl-2,3-dihydro-1H-benzo[d]pyrrolo[1,2-a]imidazol-7-yl)pyrimidin-2-amine] |  |
|  |  | 214 | CC1(C)CCc2nc3c(F)cc(-c4nc(Nc5ccc(C6CCNCC6)cn5)ncc4F)cc3n21 [Example 26] |  |
| 7.6 | 3.2 | 20 | CCN1CCC(Oc2ccc(Nc3ncc(F)c(-c4cc(F)c5nc6n(c5c4)C(C)(C)CC6)n3)nc2)CC1 [Example 33, N-(5-((1-Ethylpiperidine-4-yl)oxy)pyridin-2-yl)-5-fluoro-4-(5-fluoro-1,1-dimethyl-2,3-dihydro-1H-benzo[d]pyrrolo[1,2-a]imidazol-7-yl)pyrimidin-2-amine] |  |
| 34 | 1.7 | 1320 | Cc1nc(Nc2ncc(F)c(-c3cc(F)c4nc5n(c4c3)C(C)CC5)n2)ccc1CC1CCNCC1 (stereo not shown) [Example 62, 5-Fluoro-4-(5-fluoro-1-methyl-2,3-dihydro-1H-benzo[d]pyrrolo[1,2-a]imidazol-7-yl)-N-(6-methyl-5-(piperidine-4-methylene)pyridin-2-yl)pyrimidin-2-amine] |  |
| 13 | 49 | 579 | CCN1CCN(C(=O)c2ccc(Nc3ncc(F)c(-c4cc(F)c5nc6n(c5c4)C(C)(C)CC6)n3)nc2)CC1 [Example 32, (4-Ethylpiperazin-1-yl)(6-((5-fluoro-4-(5-fluoro-1,1-dimethyl-2,3-dihydro-1H-benzo[d]pyrrolo[1,2-a]imidazol-7-yl)pyrimidin-2-yl)amino)pyridin-3-yl)methyl ketone] |  |
| 14 | 1 | 46 | CN(C)C1CCN(c2ccc(Nc3ncc(F)c(-c4cc(F)c5nc6n(c5c4)C(C)(C)CC6)n3)nc2)CC1 [Example 71, N-(5-(4-(Dimethylamino)piperidine-1-yl)pyridin-2-yl)-5-fluoro-4-(5-fluoro-1,1-dimethyl-2,3-dihydro-1H-benzo[d]pyrrolo[1,2-a]imidazol-7-yl)pyrimidin-2-amine] |  |
| 80 | 3.9 | 1530 | CC1CCc2nc3c(F)cc(-c4nc(Nc5ccc(C6CCNCC6)cn5)ncc4F)cc3n21 (stereo not shown) [Example 61] |  |
| 9.6 | 19 | 252 | CCC1CCc2nc3c(F)cc(-c4nc(Nc5ccc(N6CCNCC6)cn5)ncc4F)cc3n21 (stereo not shown) [Example 54, 4-(1-Ethyl-5-fluoro-2,3-dihydro-1H-benzo[d]pyrrolo[1,2-a]imidazol-7-yl)-5-fluoro-N-(5-(piperazin-1-yl)pyridin-2-yl)pyrimidin-2-amine] |  |
| 6 | 9 |  | CCC1CCc2nc3c(F)cc(-c4nc(Nc5ccc(C6CCN(C)CC6)cn5)ncc4F)cc3n21 (stereo not shown) [Example 68, 4-(1-Ethyl-5-fluoro-2,3-dihydro-1H-benzo[d]pyrrolo[1,2-a]imidazolel-7-yl)-5-fluoro-N-(5-(1-methylpiperidine-4-yl)pyridin-2-yl)pyrimidin-2-amine] |  |
| 17.6 |  |  | CC1(C)CCc2nc3c(F)cc(-c4nc(Nc5ccc6c(n5)CCN(C(=O)CO)C6)ncc4F)cc3n21 [Example 21, 1-(2-((5-Fluoro-4-(5-fluoro-1,1-dimethyl-2,3-dihydro-1H-benzo[d]pyrrolo[1,2-a]imidazol-7-yl)pyrimidin-2-yl)amino)-7,8-dihydro-1,6-naphthyridin-6(5H)-yl)-2-hydroxyethan-1-one] |  |
| 144 | 60.7 | 1680 | CCC1Cc2nc3c(F)cc(-c4nc(Nc5ccc(N6CCNCC6)cn5)ncc4F)cc3n2C1 (stereo not shown) [Example 52, 4-(2-Ethyl-5-fluoro-2,3-dihydro-1H-benzo[d]pyrrolo[1,2-a]imidazol-7-yl)-5-fluoro-N-(5-(piperazin-1-yl)pyridin-2-yl)pyrimidin-2-amine] |  |
| 55 | 2 | 129 | Cc1nc(Nc2ncc(F)c(-c3cc(F)c4nc5n(c4c3)C(C)(C)CC5)n2)ccc1N1CCNCC1 [Example 31] |  |
| 90 |  | 543 | CC1(C)CCc2nc3c(F)cc(-c4ccnc(Nc5ccc(N6CCNCC6)cn5)n4)cc3n21 [Example 23, 4-(5-Fluoro-1,1-dimethyl-2,3-dihydro-1H-benzo[d]pyrrolo[1,2-a]imidazol-7-yl)-N-(5-(piperazin-1-yl)pyridin-2-yl)pyrimidin-2-amine] |  |
| 368 | 17.6 | 3650 | CC1Cc2nc3c(F)cc(-c4nc(Nc5ccc(N6CCNCC6)cn5)ncc4F)cc3n2C1 (stereo not shown) [Example 50, 5-Fluoro-4-(5-fluoro-2-methyl-2,3-dihydro-1H-benzo[d]pyrrolo[1,2-a]imidazol-7-yl)-N-(5-(piperazin-1-yl)pyridin-2-yl)pyrimidin-2-amine] |  |

| Structure (SMILES) | IC50 [1] [nM] | IC50 [2] [nM] | IC50 [3, 5] [nM] | IC50 [3, 4] [nM] |
| --- | --- | --- | --- | --- |
| CCN1CCC(c2ccc(Nc3ncc(F)c(-c4cc(F)c5nc6n(c5c4)C(C)(C)CC6)n3)nc2)CC1 [Example 45, N-(5-(1-Ethylpiperidine-4-yl)pyridin-2-yl)-5-fluoro-4-(5-fluoro-1,1-dimethyl-2,3-dihydro-1H-benzo[d]pyrrolo[1,2-a]imidazol-7-yl)pyrimidin-2-amine] | 21.7 | 7 |  | 30 |
| O=C(CO)N1CCc2nc(Nc3ncc(F)c(-c4cc(F)c5nc6n(c5c4)CCCC6)n3)ccc2C1 [Example 15, 1-(2-((5-Fluoro-4-(6-fluoro-1,2,3,4-tetrahydrobenzo[4,5]imidazo[1,2-a]pyridin-8-yl)pyrimidin-2-yl)amino)-7,8-dihydro-1,6-naphthyridin-6(5H)-yl)-2-hydroxyethan-1-one] | 68.6 | 28 |  | 1230 |
| CC1(C)CCc2nc3c(F)cc(-c4nc(Nc5ccc(OC6CCNCC6)cn5)ncc4F)cc3n21 [Example 34, 5-Fluoro-4-(5-fluoro-1,1-dimethyl-2,3-dihydro-1H-benzo[d]pyrrolo[1,2-a]imidazol-7-yl)-N-(5-(piperidine-4-yloxy)pyridin-2-yl)pyrimidin-2-amine] | 3.8 | 3.9 | 35 |  |
| Fc1cnc(Nc2ccc(N3CCNCC3)cn2)nc1-c1cc(F)c2nc3n(c2c1)CCCC3 [Example 13, 5-Fluoro-4-(6-fluoro-1,2,3,4-tetrahydrobenzo[4,5]imidazo[1,2-a]pyridin-8-yl)-N-(5-(piperazin-1-yl)pyridin-2-yl)pyrimidin-2-amine] | 62.7 | 18 |  | 1170 |

From patent publication US10696678B2, “Kinase inhibitor, and preparing method and pharmaceutical use thereof” (GAN & LEE PHARMACEUTICALS, priority 2015, dated 2020)
